Article PMC6420151 (Journal of medicinal chemistry, 2017)

Assays:
Assay type in all cases: biochemical
[1] = biological target: T1, MMP-13 (Homo sapiens, UniProt P45452)
[2] = biological target: MMP-8 (Homo sapiens, UniProt P22894); assay: MMP-8 enzyme assay with fTHP substrates; conditions: 200 nM
[3] = biological target: T2, MMP-2 (Homo sapiens, UniProt P08253); assay: MMP-2 enzyme assay with fTHP substrates; conditions: 200 nM
T2 sequence (P08253 110-660): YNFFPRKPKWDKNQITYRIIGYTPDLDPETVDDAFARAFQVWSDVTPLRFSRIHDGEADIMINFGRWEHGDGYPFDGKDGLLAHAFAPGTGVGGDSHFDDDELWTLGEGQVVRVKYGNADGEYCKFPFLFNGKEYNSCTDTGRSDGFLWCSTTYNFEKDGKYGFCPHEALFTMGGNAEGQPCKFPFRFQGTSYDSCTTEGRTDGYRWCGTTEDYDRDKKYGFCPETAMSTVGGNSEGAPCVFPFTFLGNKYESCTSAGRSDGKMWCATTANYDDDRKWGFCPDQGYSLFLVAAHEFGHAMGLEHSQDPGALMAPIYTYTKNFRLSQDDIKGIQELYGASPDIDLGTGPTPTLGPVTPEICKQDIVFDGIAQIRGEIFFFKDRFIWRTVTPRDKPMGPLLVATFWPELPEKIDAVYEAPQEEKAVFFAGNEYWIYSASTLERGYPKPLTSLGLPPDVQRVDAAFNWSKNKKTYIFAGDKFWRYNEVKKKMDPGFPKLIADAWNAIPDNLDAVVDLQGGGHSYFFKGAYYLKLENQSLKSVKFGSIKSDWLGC

[4] = biological target: T1, MMP-13; assay: In vitro type II collagen cleavage assay; conditions: 20 μM; intact type II collagen remaining after 24 h at 37 °C

Chain of MMP-8 (P22894 101-467, species assumed): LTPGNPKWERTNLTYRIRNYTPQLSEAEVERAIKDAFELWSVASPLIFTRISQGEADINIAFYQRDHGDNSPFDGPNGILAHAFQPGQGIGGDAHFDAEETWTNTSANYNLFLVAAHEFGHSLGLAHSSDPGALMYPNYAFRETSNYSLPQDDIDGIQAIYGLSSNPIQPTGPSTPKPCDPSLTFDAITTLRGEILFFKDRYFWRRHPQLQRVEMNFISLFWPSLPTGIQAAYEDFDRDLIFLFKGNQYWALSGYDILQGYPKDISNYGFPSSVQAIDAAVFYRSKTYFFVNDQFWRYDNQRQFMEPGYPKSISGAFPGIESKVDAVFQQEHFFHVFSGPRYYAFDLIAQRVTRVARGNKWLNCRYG

## CNC(=O)[C@H](NC(=O)c1ccc(-c2ccc(CSc3nc4c(c(=O)[nH]3)CCC4)cc2)o1)C(C)C [(R)-17a]
[1]; D-valine analogue compared to L-valine analogue
  loss of inhibition activity vs MMP-13 compared to the (S)-enantiomer: ca. 40 fold

## CNC(=O)[C@@H](NC(=O)c1ccc(-c2ccc(CSc3nc4c(c(=O)[nH]3)CCC4)cc2)o1)C(C)C [(S)-17a]
[2]
  inhibition of MMP-8 in single-dose assay: moderately active
[1]; compared to starting inhibitor 5
  improvement of MMP-13 inhibition potency compared to 5: ~300 fold
[3]
  inhibition of MMP-2 in single-dose assay: moderately active

## Cc1ccc(CSc2nc(O)c3c(n2)CCC3)cc1 [Compound 5]
[4]
  inhibition of collagenolysis (type II collagen cleavage by MMP-13): nearly inactive
